“Also recorded” adds a separate entry of the source. Ends that are not written are not given here.
Experiments:
[1] = tested on: platelets (platelet-rich plasma); experiment: γ-thrombin-induced platelet aggregation in platelet-rich plasma; format: cell-based, human; conditions: for peptide concentration at which γ-thrombin-induced platelet aggregation returned: 70 nM γ-thrombin; for Fold Increase in Aggregation Inhibition over RPPGF: γ-thrombin, compared to RPPGF at 0.2 mM
Protocol: (§1) Fresh whole blood was collected and mixed with 0.013 M sodium citrate and platelet-rich plasma was prepared according to the method of Meloni et al., J. Biol. Chem. 266, 6786 (1991). Platelet-rich plasma with a normalized platelet count between 2-2.5×10^8 platelets/ml was added to a cuvette of an aggregometer (Chronlog Corp., Havertown, Pa.), standardized using the protocol of Meloni et al., supra. Peptides to be examined were added to the cuvette and the mixture stabilized for a few moments. Once the baseline was stabilized, γ-thrombin (10-70 NM) (Haematologic Technologies, Essex Junction, Vt.) was added to determine the minimal concentration of the agonist necessary to achieve full platelet aggregation. All investigations with peptides were performed using threshold concentrations of γ-thrombin. Aggregation was allowed to proceed for 5 minutes before stopping. When ADP-induced platelet aggregation studies were performed, 1-5 μM ADP (Sigrna) was added to the cuvette containing platelet-rich plasma.

[2] = tested on: platelets (platelet-rich plasma); experiment: ADP-induced platelet aggregation in platelet-rich plasma; format: cell-based, human; conditions: 1 mM peptide, 4.5 μM ADP
Protocol: as §1

[3] = tested on: Normal human lung fibroblasts (NHLF); experiment: α-thrombin-induced calcium mobilization in fibroblasts (fura-2); format: cell-based; conditions: for Ca2+ % Inhibition At 0.2 mM Peptide: thrombin-induced calcium mobilization in fibroblasts
Protocol: The second assay developed to assess peptides from the combinatorial libraries uses inhibition of α-thrombin-induced calcium mobilization in fibroblasts. Normal human lung fibroblasts (NHLF) were purchased from Clonetics, San Diego, Calif., an affiliate of Bio-Wittaker, Walkersville, Md. The cytoplasmic free Ca^2+ concentration ([Ca^2+]i) was measured using the fluorescent Ca^2+ indicator fura-2 (Molecular Probes, Inc., Eugene, Oreg.). Suspension of fibroblasts in Hepes-Tyrode's buffer were loaded with fura-2 by incubation at 37° C. with 2 μM fura-2/acetoxymethyl ester for 45 minutes according to the method of Rasmussen et al., J. Biol. Chem. 268, 14322 (1993). The labeled fibroblasts were separated from excess probe by washing by centrifugation at 1000 rpm (180×g). Aliquots of the labeled fibroblasts were transferred into a quartz cuvette with a magnetic stirrer, which was then placed in a thennostatically controlled chamber at 37° C. in a fluorescence spectrophotometer (Perkin-Elmer LS50B spectrofluorometer, Chicago, Ill.). Reagents, test peptide (SEQ ID NO: 5) (from 0.2 mM to effective lower concentration), and α-thrombin (2-4 nM), were sequentially added directly to the cuvette. The excitation wavelengths varied between 340 and 380 nm. Fluorescence was measured by recording emitted light at 510 nm as reported by Fisher et al., Mol Pharm. 35, 195 (1989). The minimum emission was determined on a solubilized fibroblast sample in the presence of 10 mM EDTA; maximum emission was determined on the same sample with 10 mM Ca^2+ added. The intrafibroblast free Ca^2+ concentration was calculated by the method of Grykiewicz et al., J. Biol. Chem. 260, 3440 (1985). The ratio of the fluorescence readings was calculated as R=340/380 nm and processed according to the equation [Ca^2+]i=KD((R−Rmim)/Rmax−R)) (Sf2/Sb2) to determine the intrafibroblast free Ca^2+ concentration. The KD for fura-2 was assumed to be 224 nM. Rmax and Rmin are the maximum and minimum fluorescence ratios measured at the end of the experiment, respectively; Sf2 and Sb2 are the fluorescence values at 380 nm in the absence and presence of saturating [Ca 2+], respectively. The reaction was monitored for 3-5 minutes. […] In FIG. 4, peptide RGDWC (SEQ ID NO: 20) at 0.2 mM inhibited 31% of 4 nM α-thrombin-induced Ca^2+ mobilization in fibroblasts.

[4] = target: T1, biotin-NAT12 (NATLDPRSFLLR, peptide from PAR1) (Homo sapiens, UniProt P25116); experiment: Biotin-NAT12 binding assay to peptides coupled to microtiter plates; conditions: relative to RPPGF given arbitrary binding level of 1
Protocol: A third assay was developed to ascertain the ability of biotin-NAT12 (NATLDPRSFLLR, SEQ ID NO: 41) to directly bind to peptides linked to microtiter plates. In this assay, peptide analogs were linked to microtiter plate cuvette wells by incubation of the peptide in 0.1 M Na2CO3, pH 9.6 buffer overnight at 4° C. After coupling the peptide to the cuvette well, the wells were dumped and each well was blocked with 1% bovine serun albumin in 0.01 M Na3PO4, 0.15 M NaCl, at pH 7.4. After incubation for 1 hour, the wells were dumped and washed three times with PBS-Tween. The wells were then incubated with biotin-NAT12. The amount of biotin-NAT12 bound was determined by adding streptavidin-peroxidase followed by adding turbo TMB (Pierce).
In decreasing order of binding level, these peptides include: RGKSC, RGKMC, RGKHC, RGKKC, RGKFC, RGKLC, RGKWC, and RGKVC (SEQ ID NOS 18, 7, 13, 14, 11, 1, 5 and 19, respectively). […] The best to least RGDO4C (SEQ ID NO: 44) peptides to bind biotin-NAT12 listed in Table VI are: RGDSC, RGDGC, RGDQC, RGDEC, RGDIC, RGDPC, RGDDC, and RGDYC (SEQ ID NOS 34, 28, 23, 22, 36, 38, 27 and 35, respectively). A solid phase peptide-peptide binding assay was used to determine biotin-NAT12 binding to library peptides. Test peptides in 0.1 M Na2CO3, pH 9.6 buffer, at 10 μg/well in 50 μl volume, were coupled to microtiter plate wells by overnight incubation at 4° C. After incubation, the contents of the wells were discarded and the wells were washed with a pH 7.4 buffer containing 0.01 M Na3PO4, 0.15 M NaCl, and 0.01% Tween 20. After blocking each well with 1% radioimmunoassay grade bovine serum albumin, the linked peptides were incubated with 100 μl of 100 μM biotin-NAT12 for 1 hour at 37° C. After incubation, the contents of the wells were dumped and the wells were washed three times (100 μl/well each time) with the buffer identified above. Each well then was incubated with 100 μl of 2 μg/ml solution of Immuno-Pure streptoavidin horeseradish peroxidase conjugate (Pierce Chemical Co., […], Ill.) for 1 hour at room temperature. The contents of the wells were discarded and the wells were washed three times as described above. The wells were then incubated with 100 μl of peroxidase-specific fast reacting substrate, turbo-3,3′,5,5′-tetramethylbenzidine (turbo-TMB, Pierce) for 5 minutes at room temperature and the developing color reaction was stopped by the addition of 100 μof 1 M phosphoric acid. The absorbance was measured at 450 nm using a Microplate Auto Reader EL311 (Bio-Tek, Winooski, Vt.).

[5] = target: T1, biotin-NAT12 (NATLDPRSFLLR, peptide from PAR1); experiment: as above; conditions: peptides at 10 μg/ml coupled to microtiter plate
[6] = RGKO4C sublibrary, platelet-rich plasma

Substance: Arg-Gly-Lys-Trp-Cys (RGKWC-NH2) [peptide of the H-R-G-K-O4-C-NH2 sublibrary]
- peptide concentration at which γ-thrombin-induced platelet aggregation returned ([1]; platelet-rich plasma): 0.125 mM
- Fold Increase in Aggregation Inhibition over RPPGF [1, 6]: 1.3 fold
- effect on ADP-induced platelet aggregation (in words) [2]: did not inhibit
- peptide concentration at which α-thrombin overcame the inhibitory effect on Ca2+ mobilization ([3]; 2 nM α-thrombin, fibroblasts): 12.5 µM
- peptide concentration at which α-thrombin-induced calcium mobilization is abolished ([3]; 2 nM α-thrombin, fibroblasts): 0.2 mM
- peptide concentrations blocking α-thrombin-induced Ca2+ mobilization ([3]; 2 nM α-thrombin, fibroblasts): ≥ 50 µM
- Ca2+ % Inhibition At 0.2 mM Peptide ([3]; RGKO4C sublibrary): 62.5%
- Level of Binding to Biotin-NAT12 ([4]; RGKO4C sublibrary): 1.3
- level of biotin-NAT12 binding compared with other peptides (in words) [5]: binds to a greater extent than peptide RGDWC; also recorded: greater than RPPGF; also recorded: less than that seen with the multiple branched peptide MAP4RPPGF

Substance: Arg-Pro-Pro-Gly-Phe (RPPGF) [bradykinin analog peptide used as control, reference compound]
- peptide concentration at which γ-thrombin-induced platelet aggregation returned ([1]; platelet-rich plasma): 0.25 mM
- Fold Increase in Aggregation Inhibition over RPPGF ([1]; RGDO4C sublibrary): 1 fold
- Fold Increase in Aggregation Inhibition over RPPGF [1, 6]: 1.0 fold
- effect on ADP-induced platelet aggregation (in words) [2]: did not inhibit
- Level of Binding to Biotin-NAT12 ([4]; RGDO4C sublibrary): 1
- Level of Binding to Biotin-NAT12 ([4]; RGKO4C sublibrary): 1.0

Substance: RGDRC: peptide of the H-R-G-D-O4-C-NH2 sublibrary (H-RGDRC-NH2)
- Fold Increase in Aggregation Inhibition over RPPGF ([1]; RGDO4C sublibrary): 5 fold
- Ca2+ % Inhibition At 0.2 mM Peptide ([3]; RGDO4C sublibrary): 0%
- Level of Binding to Biotin-NAT12 ([4]; RGDO4C sublibrary): 0.99

Substance: RGDSC: peptide of the H-R-G-D-O4-C-NH2 sublibrary (H-RGDSC-NH2)
- Fold Increase in Aggregation Inhibition over RPPGF ([1]; RGDO4C sublibrary): 5 fold
- Ca2+ % Inhibition At 0.2 mM Peptide ([3]; RGDO4C sublibrary): 0%
- Level of Binding to Biotin-NAT12 ([4]; RGDO4C sublibrary): 1.44
- level of biotin-NAT12 binding compared with other peptides (in words) [5]: equivalent to the ability of RGKWC

Substance: RGDTC: peptide of the H-R-G-D-O4-C-NH2 sublibrary (H-RGDTC-NH2)
- Fold Increase in Aggregation Inhibition over RPPGF ([1]; RGDO4C sublibrary): 7.5 fold
- Ca2+ % Inhibition At 0.2 mM Peptide ([3]; RGDO4C sublibrary): 0%
- Level of Binding to Biotin-NAT12 ([4]; RGDO4C sublibrary): 0.746

Substance: RGDVC: peptide of the H-R-G-D-O4-C-NH2 sublibrary (H-RGDVC-NH2)
- Fold Increase in Aggregation Inhibition over RPPGF ([1]; RGDO4C sublibrary): 15 fold
- Ca2+ % Inhibition At 0.2 mM Peptide ([3]; RGDO4C sublibrary): 2.56%
- Level of Binding to Biotin-NAT12 ([4]; RGDO4C sublibrary): 0.723

Substance: RGDYC: peptide of the H-R-G-D-O4-C-NH2 sublibrary (H-RGDYC-NH2)
- Fold Increase in Aggregation Inhibition over RPPGF ([1]; RGDO4C sublibrary): 5 fold
- Ca2+ % Inhibition At 0.2 mM Peptide ([3]; RGDO4C sublibrary): 16.4%
- Level of Binding to Biotin-NAT12 ([4]; RGDO4C sublibrary): 1.05

Substance: RGKIC: peptide of the H-R-G-K-O4-C-NH2 sublibrary (H-RGKIC-NH2)
- Fold Increase in Aggregation Inhibition over RPPGF [1, 6]: 1.3 fold
- Ca2+ % Inhibition At 0.2 mM Peptide ([3]; RGKO4C sublibrary): 13.8%
- Level of Binding to Biotin-NAT12 ([4]; RGKO4C sublibrary): 0.98

Substance: RGKLC: peptide of the H-R-G-K-O4-C-NH2 sublibrary (H-RGKLC-NH2)
- Fold Increase in Aggregation Inhibition over RPPGF [1, 6]: 7.7 fold
- Ca2+ % Inhibition At 0.2 mM Peptide ([3]; RGKO4C sublibrary): 8.33%
- Level of Binding to Biotin-NAT12 ([4]; RGKO4C sublibrary): 1.5

Substance: RGKMC: peptide of the H-R-G-K-O4-C-NH2 sublibrary (H-RGKMC-NH2)
- Fold Increase in Aggregation Inhibition over RPPGF [1, 6]: 1.3 fold
- Ca2+ % Inhibition At 0.2 mM Peptide ([3]; RGKO4C sublibrary): 7.95%
- Level of Binding to Biotin-NAT12 ([4]; RGKO4C sublibrary): 2.1

Substance: RGKRC: peptide of the H-R-G-K-O4-C-NH2 sublibrary (H-RGKRC-NH2)
- Fold Increase in Aggregation Inhibition over RPPGF [1, 6]: 2.5 fold
- Ca2+ % Inhibition At 0.2 mM Peptide ([3]; RGKO4C sublibrary): 35.7%
- Level of Binding to Biotin-NAT12 ([4]; RGKO4C sublibrary): 0.38

Substance: RGKTC: peptide of the H-R-G-K-O4-C-NH2 sublibrary (H-RGKTC-NH2)
- Fold Increase in Aggregation Inhibition over RPPGF [1, 6]: 4.4 fold
- Ca2+ % Inhibition At 0.2 mM Peptide ([3]; RGKO4C sublibrary): 26.8%
- Level of Binding to Biotin-NAT12 ([4]; RGKO4C sublibrary): 0.597

Substance: RGKYC: peptide of the H-R-G-K-O4-C-NH2 sublibrary (H-RGKYC-NH2)
- Fold Increase in Aggregation Inhibition over RPPGF [1, 6]: 1.3 fold
- Ca2+ % Inhibition At 0.2 mM Peptide ([3]; RGKO4C sublibrary): 0%
- Level of Binding to Biotin-NAT12 ([4]; RGKO4C sublibrary): 0.94
